Test results: patent US10206394B2, “Herbicidal compounds” (Syngenta Participations AG, priority 2014, dated 2019)
Like-named read-outs stand apart in the source and are kept apart here.

Assays:
Test in all cases: Glasshouse assay for herbicidal activity (pre- and post-emergence), percentage phytotoxicity
Format in all cases: in vivo
[1] = system: Lolium perenne (LOLPE); settings: Lolium perenne, Rate 250 g/ha, 100%=total damage, 0%=no damage
Procedure: (§1) Test—Glasshouse Assay for Herbicidal Activity
(§2) Seeds of a variety of monocotyledonous and dicotyledonous test plants are sown in standard soil in pots. The plants are cultivated for one day (for pre-emergence (PRE)) or for about 12 days (for post-emergence (POST)) under controlled conditions in a glasshouse (warm climate species at 24/18° C., cool climate species at 20/16° C., both at day/night; 16 hours light; 65% humidity).
(§3) The test plants are then grown on, in a glasshouse (greenhouse) under controlled conditions (warm climate species at 24/18° C., cool climate species at 20/16° C., both at day/night; 16 hours light; 65% humidity) and are watered twice daily. 15 days after application of the test herbicide (15 DAA) (for post-emergence), and 20 days after application of the test herbicide (20 DAA) (for pre-emergence), the test plants are evaluated visually, and an assessed percentage phytotoxicity score is given for each herbicidal application on each plant species (with 100%=total damage to plant; 0%=no damage to plant).
(§4) The plant species tested are as follows: Alopecurus myosuroides (ALOMY), Avena fatua (AVEFA), Lolium perenne (LOLPE), Echinochloa crus-galli (ECHCG).

[2] = system: Alopecurus myosuroides (ALOMY); settings: Alopecurus myosuroides, Rate 250 g/ha, 100%=total damage, 0%=no damage
Procedure: as §1, §2, §3, §4

[3] = system: Avena fatua (AVEFA); settings: Avena fatua, Rate 250 g/ha, 100%=total damage, 0%=no damage
Procedure: as §1, §2, §3, §4

[4] = system: Echinochloa crus-galli (ECHCG); settings: Echinochloa crus-galli, Rate 250 g/ha, 100%=total damage, 0%=no damage
Procedure: as §1, §2, §3, §4

[5] = post-emergence, 360 h, post-emergence, assessed visually 15 DAA, read-out: Post-emergence herbicidal activity (percentage phytotoxicity) LOLPE POST
[6] = pre-emergence, 480 h, pre-emergence, assessed visually 20 DAA, read-out: Pre-emergence herbicidal activity (percentage phytotoxicity) LOLPE PRE
[7] = post-emergence, 360 h, post-emergence, assessed visually 15 DAA, read-out: Post-emergence herbicidal activity (percentage phytotoxicity) ALOMY POST
[8] = pre-emergence, 480 h, pre-emergence, assessed visually 20 DAA, read-out: Pre-emergence herbicidal activity (percentage phytotoxicity) ALOMY PRE
[9] = post-emergence, 360 h, post-emergence, assessed visually 15 DAA, read-out: Post-emergence herbicidal activity (percentage phytotoxicity) AVEFA POST
[10] = pre-emergence, 480 h, pre-emergence, assessed visually 20 DAA, read-out: Pre-emergence herbicidal activity (percentage phytotoxicity) AVEFA PRE
[11] = post-emergence, 360 h, post-emergence, assessed visually 15 DAA, read-out: Post-emergence herbicidal activity (percentage phytotoxicity) ECHCG POST
[12] = pre-emergence, 480 h, pre-emergence, assessed visually 20 DAA, read-out: Pre-emergence herbicidal activity (percentage phytotoxicity) ECHCG PRE

Row | SMILES | pest or weed control at 250 g/ha [1, 5] | pest or weed control at 250 g/ha [1, 6] | pest or weed control at 250 g/ha [2, 7] | pest or weed control at 250 g/ha [2, 8] | pest or weed control at 250 g/ha [3, 9] | pest or weed control at 250 g/ha [3, 10] | pest or weed control at 250 g/ha [4, 11] | pest or weed control at 250 g/ha [4, 12]
1 | Cc1cc(C)c(C2C(=O)CC(CC(=O)NC(C)c3ccc(F)cc3)C2=O)c(C)c1 (centres unmarked) [Compound A93] | 80% | 90% | 100% | 90% | 40% | 20% | 70% | 60%
2 | C=CCCNC(=O)CC1CC(=O)C(c2c(C)cc(C)cc2C)C1=O (centres unmarked) [Compound A94] |  | 90% |  | 90% |  | 20% | 80% | 60%
3 | Cc1cc(C)c(C2C(=O)CC(CC(=O)NCc3cccc(Cl)c3)C2=O)c(C)c1 (centres unmarked) [Compound A96] | 100% | 100% | 80% | 100% | 80% | 70% | 80% | 100%
4 | Cc1cc(C)c(C2C(=O)CC(CC(=O)NCc3ccc(C)o3)C2=O)c(C)c1 (centres unmarked) [Compound A97] | 70% | 90% | 70% | 30% | 20% | 0% | 0% | 0%
5 | Cc1cc(C)c(C2C(=O)CC(CC(=O)NCc3ccc(C(F)(F)F)nc3)C2=O)c(C)c1 (centres unmarked) [Compound A98] | 80% | 80% | 90% | 100% | 90% | 20% | 60% | 80%
6 | Cc1cc(C)c(C2C(=O)CC(CC(=O)NCc3ccoc3)C2=O)c(C)c1 (centres unmarked) [Compound A99] | 70% | 20% | 60% | 20% | 30% | 0% | 0% | 0%
7 | Cc1cc(C)c(C2C(=O)CC(CC(=O)NCc3nc4ccccc4s3)C2=O)c(C)c1 (centres unmarked) [Compound A100] | 70% | 80% | 70% | 90% | 0% | 0% | 20% | 20%
8 | Cc1ccc(/C=C/C2(NC(=O)CC3CC(=O)C(c4c(C)cc(C)cc4C)C3=O)CC2)cc1 (centres unmarked) [Compound A101] | 40% |  | 10% |  | 0% |  | 20% | 
9 | Cc1cc(C)c(C2C(=O)CC(CC(=O)NC3CCC(C)CC3C)C2=O)c(C)c1 (centres unmarked) [Compound A103] | 20% |  | 60% |  | 10% |  | 20% | 
10 | COCC#CC(C)(C)NC(=O)CC1CC(=O)C(c2c(C)cc(C)cc2C)C1=O (centres unmarked) [Compound A104] | 60% | 80% | 90% | 90% | 70% | 0% | 70% | 80%
11 | Cc1cc(C)c(C2C(=O)CC(CC(=O)NCc3ncc(C)s3)C2=O)c(C)c1 (centres unmarked) [Compound A105] | 70% | 70% | 80% | 80% | 0% | 20% | 60% | 70%
